Measured values as given in ChEMBL document CHEMBL1811835, “Intramolecular ion-pair prodrugs of zanamivir and guanidino-oseltamivir” (Bioorg Med Chem, 2011).

Tests used:
[1] = Octanol-water distribution coefficient, log D of the compound at pH 7.4 at 100 ug/mL; type: physicochemical
[2] = Octanol-water distribution coefficient, log D of the compound at pH 6.5; type: physicochemical
Plasma [3] = experiment: Stability in Sprague-Dawley rat plasma at 1 mM incubated for 24 hrs at 37 degC by LC-QTOF mass spectrometry; type: ADME, cell-free; settings: 1000 µM
Plasma [4] = experiment: Stability in Sprague-Dawley rat plasma at 1 mM incubated for 24 hrs at 37 degC by MALDI-TOF mass spectrometry; type: ADME, cell-free; settings: 1000 µM

Compound	logD ([1]; read-out: logD)	logD [2]	further results
O=C(O)c1ccc2ccccc2c1O [CARBOXYNAPHTHOL]	0.16	0.25	
CCC(CC)O[C@@H]1C=C(C(=O)O)C[C@H](NC(=N)N)[C@H]1NC(C)=O			logD [1]: -0.13
CCC(CC)O[C@@H]1C=C(C(=O)O)C[C@H](N)[C@H]1NC(C)=O [OSELTAMIVIR CARBOXYLATE]	-1.5		
CCOC(=O)C1=C[C@@H](OC(CC)CC)[C@H](NC(C)=O)[C@@H](NC(=N)N)C1	0.31	-1.17	

The next lines start with results.

logD ([1]; read-out: logD)	logD [2]	Compound	further results
0.82		CCC(CC)O[C@@H]1C=C(C(=O)OCCCOC(=O)c2ccc3ccccc3c2O)C[C@H](NC(=N)N)[C@H]1NC(C)=O	
-1		CC(=O)N[C@H]1[C@H]([C@H](O)[C@H](O)CO)OC(C(=O)O)=C[C@@H]1N=C(N)N [ZANAMIVIR]	
0.75		CC(=O)N[C@H]1[C@H]([C@H](O)[C@H](O)CO)OC(C(=O)OCCCOC(=O)c2ccc3ccccc3c2O)=C[C@@H]1NC(=N)N	Stability (Plasma [3]): Stable; Stability (Plasma [4]): Stable
-0.28		CCOC(=O)C1=C[C@H](NC(=N)N)[C@@H](NC(C)=O)[C@H]([C@H](O)[C@H](O)CO)O1	
	-1.31	CCCCCCCOC(=O)C1=C[C@H](NC(=N)N)[C@@H](NC(C)=O)[C@H]([C@H](O)[C@H](O)CO)O1 [ZANAMIVIR HEPTYL ESTER]	
